The values that follow come from PubChem BioAssay AID282 (DTP/NCI, 2004).

The experiment has as its system BDF1 mice, L1210 terephthalanilide-resistant leukemia ip, survival T/C. Nature of the experiment: NCI In Vivo Anticancer Drug Screen. Data for tumor model L1210 Leukemia resistant to A Terephthalanilide; NSC 38280 (intraperitoneal) in B6D2F1 (BDF1) mice. Conditions: endpoint: mean survival time, higher = longer survival. As to the method: The antitumor activity of compounds was measured in mice bearing transplantable tumors. Survival or tumor size were measured and the results are expressed as the measurement made in the treated group (T) divided by the measurement made in the vehicle treated control group (C). The tumor model used in this assay is L1210 Leukemia resistant to A Terephthalanilide; NSC 38280 (intraperitoneal) in B6D2F1 (BDF1) mice

The mark [1] stands for this setting: dose: 5.0 mg/kg/injection, schedule: Q01DX Z (ip), vehicle: saline.
[2] abbreviates: dose: 10.0 mg/kg/injection, schedule: Q01DX Z (ip), vehicle: saline.
The mark [3] stands for this setting: dose: 25.0 mg/kg/injection, schedule: Q01DX Z (ip), vehicle: carboxymethylcellulose (CMC).
Setting [4] is: dose: 50.0 mg/kg/injection, schedule: Q01DX Z (ip), vehicle: carboxymethylcellulose (CMC).
The mark [5] stands for this setting: dose: 5.0 mg/kg/injection, schedule: Q01DX010 (ip), vehicle: saline.
The mark [6] stands for this setting: dose: 20.0 mg/kg/injection, schedule: Q01DX010 (ip), vehicle: saline.
The mark [7] stands for this setting: dose: 8.0 mg/kg/injection, schedule: Q01DX010 (ip), vehicle: saline.
Setting [8] is: dose: 37.5 mg/kg/injection, schedule: Q01DX Z (ip), vehicle: carboxymethylcellulose (CMC).
Where [9] appears, read: dose: 1.0 mg/kg/injection, schedule: Q01DX Z (ip), vehicle: carboxymethylcellulose (CMC).
The mark [10] stands for this setting: dose: 25.0 mg/kg/injection, schedule: Q01DX010 (ip), vehicle: saline.

Several values for one entry are separate records, joined by “and”; a condition that tells them apart may be missing. Equal entries are not always repeated. Toxic doses and inconclusive results are not listed. Starred links: 1 amine or outer side, 2 acyl side, 3 side chain; linkers in the order of their positions; H or OH if unused. Positions of bridges follow the written chain, without caps; N, C: chain ends. Non-standard residues stand in square brackets, D forms with d. Residues, ends and D or L forms follow the SMILES beside them. Chains are numbered I, II in the order given. Actinocin(9to1) = Cc1c2oc3c(C)ccc(C(=O)[*:1])c3nc-2c(C(=O)[*:2])c(N)c1=O; aThr = C[C@H](O)[C@H](N)C(=O)O; NMeV = CN[C@H](C(=O)O)C(C)C; Sar = CNCC(=O)O

As for `O=P1(N(CCCl)CCCl)NCCCO1` (configuration not stated), the T/C is 102 % of control under setting [1]; 124 % of control under setting [2]; 122 % of control (dose: 15.0 mg/kg/injection, schedule: Q01DX Z (ip), vehicle: saline); 160 % of control (dose: 25.0 mg/kg/injection, schedule: Q01DX Z (ip), vehicle: saline); 200 % of control (dose: 37.5 mg/kg/injection, schedule: Q01DX Z (ip), vehicle: saline); 166 % of control and 239 % of control (dose: 50.0 mg/kg/injection, schedule: Q01DX Z (ip), vehicle: saline). Besides, the T/C (dose: 75.0 mg/kg/injection, schedule: Q01DX Z (ip), vehicle: saline) is 102 % of control and the T/C (dose: 200.0 mg/kg/injection, schedule: Q01DX Z (ip), vehicle: saline) was 100 % of control.

Turning to `CN(C)C(=S)N=Nc1c(O)[nH]c2ccccc12`, the T/C is 90 % of control under setting [3]; 98 % of control under setting [4]; 89 % of control (dose: 100.0 mg/kg/injection, schedule: Q01DX Z (ip), vehicle: carboxymethylcellulose (CMC)).

Consider `C[C@@H]1C[C@@H]([C@H](O)CC2CC(=O)NC(=O)C2)C(=O)[C@@H](C)C1`, for which the T/C reads like this: (dose: 1.25 mg/kg/injection, schedule: Q01DX Z (ip), vehicle: saline) 101 % of control; (dose: 2.5 mg/kg/injection, schedule: Q01DX Z (ip), vehicle: saline) 107 % of control; under setting [5], 100 % of control and 105 % of control; under setting [1], 106 % of control; (dose: 7.5 mg/kg/injection, schedule: Q01DX Z (ip), vehicle: saline) 107 % of control; (dose: 10.0 mg/kg/injection, schedule: Q01DX010 (ip), vehicle: saline) 123 % of control and 113 % of control. For the same molecule, the T/C by setting is: under setting [6], 113 % of control and 117 % of control; (dose: 40.0 mg/kg/injection, schedule: Q01DX010 (ip), vehicle: saline) 115 % of control.

For the molecule `Cc1c2oc3c(C)ccc(C(=O)N[C@@H]4C(=O)N[C@H](C(C)C)C(=O)N5CCC[C@H]5C(=O)N(C)CC(=O)N(C)[C@@H](C(C)C)C(=O)O[C@H]4C)c3nc-2c(C(=O)N[C@@H]2C(=O)N[C@H](C(C)C)C(=O)N3CCC[C@H]3C(=O)N(C)CC(=O)N(C)[C@@H](C(C)C)C(=O)O[C@H]2C)c(N)c1=O` (I: [aThr][dV]P[Sar][NMeV] / II: [aThr][dV]P[Sar][NMeV]; ester I:1-I:C, II:1-II:C; linker I:N-II:N via Actinocin(9to1)), the T/C reads like this: (dose: 12.5 micrograms/kg/injection, schedule: Q01DX010 (ip), vehicle: other) 117 % of control and 118 % of control; (dose: 25.0 micrograms/kg/injection, schedule: Q01DX010 (ip), vehicle: other) 121 % of control and 118 % of control; (dose: 50.0 micrograms/kg/injection, schedule: Q01DX010 (ip), vehicle: other) 124 % of control and 117 % of control; (dose: 100.0 micrograms/kg/injection, schedule: Q01DX010 (ip), vehicle: other) 95 % of control and 103 % of control.

As for `CN(C)c1nc(N(C)C)nc(N(C)C)n1`, the T/C (dose: 18.8 mg/kg/injection, schedule: Q01DX010 (ip), vehicle: saline) is 94 % of control and 95 % of control; the T/C (dose: 37.5 mg/kg/injection, schedule: Q01DX010 (ip), vehicle: saline) was 94 % of control and 100 % of control; the T/C (dose: 75.0 mg/kg/injection, schedule: Q01DX010 (ip), vehicle: saline) is 94 % of control and 99 % of control; the T/C (dose: 87.5 mg/kg/injection, schedule: Q01DX Z (ip), vehicle: other) is 110 % of control; the T/C (dose: 150.0 mg/kg/injection, schedule: Q01DX010 (ip), vehicle: saline) was 96 % of control and 99 % of control; the T/C (dose: 175.0 mg/kg/injection, schedule: Q01DX Z (ip), vehicle: other) was 119 % of control.

As to `CCOC(=O)NP(=O)(N1CC1(C)C)N1CC1(C)C` (configuration not stated), the T/C is 101 % of control under setting [1]; 115 % of control under setting [2]; 121 % of control (dose: 20.0 mg/kg/injection, schedule: Q01DX Z (ip), vehicle: saline); 151 % of control (dose: 40.0 mg/kg/injection, schedule: Q01DX Z (ip), vehicle: saline); 164 % of control (dose: 62.0 mg/kg/injection, schedule: Q01DX Z (ip), vehicle: saline); 236 % of control (dose: 125.0 mg/kg/injection, schedule: Q01DX Z (ip), vehicle: saline). Further, the T/C is 302 % of control (dose: 250.0 mg/kg/injection, schedule: Q01DX Z (ip), vehicle: saline) and 100 % of control (dose: 500.0 mg/kg/injection, schedule: Q01DX Z (ip), vehicle: saline).

Take `c1ccc(CNc2ncnc3[nH]ncc23)cc1`: the T/C reads like this: under setting [7], 102 % of control and 107 % of control; (dose: 12.5 mg/kg/injection, schedule: Q01DX Z (ip), vehicle: carboxymethylcellulose (CMC)) 97 % of control; (dose: 16.0 mg/kg/injection, schedule: Q01DX010 (ip), vehicle: saline) 103 % of control and 114 % of control; under setting [3], 109 % of control; (dose: 32.0 mg/kg/injection, schedule: Q01DX010 (ip), vehicle: saline) 107 % of control; under setting [8], 116 % of control. Also, the T/C under setting [4] is 97 % of control; the T/C (dose: 64.0 mg/kg/injection, schedule: Q01DX010 (ip), vehicle: saline) was 99 % of control and 103 % of control.

As for `N=[N+]=CC(=O)OCC(N)C(=O)O` (configuration not stated), the T/C is 122 % of control under setting [9]; 168 % of control (dose: 3.75 mg/kg/injection, schedule: Q01DX Z (ip), vehicle: carboxymethylcellulose (CMC)); 171 % of control (dose: 5.0 mg/kg/injection, schedule: Q01DX Z (ip), vehicle: carboxymethylcellulose (CMC)); 156 % of control (dose: 6.25 mg/kg/injection, schedule: Q01DX010 (ip), vehicle: saline); 183 % of control (dose: 7.5 mg/kg/injection, schedule: Q01DX Z (ip), vehicle: carboxymethylcellulose (CMC)); 174 % of control (dose: 10.0 mg/kg/injection, schedule: Q01DX Z (ip), vehicle: carboxymethylcellulose (CMC)). The T/C by setting is: (dose: 12.5 mg/kg/injection, schedule: Q01DX010 (ip), vehicle: saline) 118 % of control; under setting [10], 97 % of control; (dose: 30.0 mg/kg/injection, schedule: Q01DX Z (ip), vehicle: carboxymethylcellulose (CMC)) 115 % of control.

Take `O=C(Nc1ccc(C2=NCCN2)cc1)Nc1cccc(NC(=O)Nc2ccc(C3=NCCN3)cc2)c1`: the T/C reads like this: (dose: 60.0 mg/kg/injection, schedule: Q01DX010 (ip), vehicle: saline) 96 % of control and 110 % of control; (dose: 120.0 mg/kg/injection, schedule: Q01DX010 (ip), vehicle: saline) 92 % of control and 116 % of control; (dose: 240.0 mg/kg/injection, schedule: Q01DX010 (ip), vehicle: saline) 96 % of control and 100 % of control; (dose: 480.0 mg/kg/injection, schedule: Q01DX010 (ip), vehicle: saline) 86 % of control and 87 % of control.

Turning to `C[n+]1ccc(NC(=O)c2ccc(NC(=O)c3cccc(C(=O)Nc4ccc(C(=O)Nc5cc[n+](C)cc5)cc4)c3)cc2)cc1`, the T/C under setting [5] is 87 % of control and the T/C under setting [6] was 116 % of control.

As for `CN(C)c1ccc(/C=C\c2ccnc3ccccc23)cc1`, the T/C under setting [5] is 98 % of control; the T/C under setting [7] was 100 % of control; the T/C (dose: 12.0 mg/kg/injection, schedule: Q01DX010 (ip), vehicle: saline) is 100 % of control; the T/C (dose: 18.0 mg/kg/injection, schedule: Q01DX010 (ip), vehicle: saline) is 92 % of control and 95 % of control; the T/C (dose: 18.75 mg/kg/injection, schedule: Q01DX Z (ip), vehicle: carboxymethylcellulose (CMC)) was 101 % of control; the T/C (dose: 27.0 mg/kg/injection, schedule: Q01DX010 (ip), vehicle: saline) was 89 % of control. Besides, the T/C under setting [8] is 95 % of control and the T/C under setting [4] was 90 % of control.

For `CCN(CC)CCNc1ccc(C)c2sc3ccccc3c(=O)c12`, the T/C was 101 % of control and 105 % of control under setting [10]; 111 % of control (dose: 25.0 mg/kg/injection, schedule: Q01DX Z (ip), vehicle: water); 105 % of control and 111 % of control (dose: 50.0 mg/kg/injection, schedule: Q01DX010 (ip), vehicle: saline); 111 % of control (dose: 100.0 mg/kg/injection, schedule: Q01DX010 (ip), vehicle: saline); 115 % of control (dose: 100.0 mg/kg/injection, schedule: Q01DX Z (ip), vehicle: water).

For the molecule `Oc1cc(CN(CCCl)CCCl)c(O)cc1CN(CCCl)CCCl`, the T/C by setting is: (dose: 0.63 mg/kg/injection, schedule: Q01DX010 (ip), vehicle: saline) 116 % of control and 120 % of control; under setting [9], 121 % of control; under setting [5], 108 % of control and 113 % of control; (dose: 6.0 mg/kg/injection, schedule: Q01DX Z (ip), vehicle: carboxymethylcellulose (CMC)) 150 % of control.
